# Assay results from PubChem BioAssay (NCI).
#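 The compound was tested at five concentrations on cells cultured in 96-well plates, with a 48-hour exposure period. At the TGI there is no net growth.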
# Columns and labels:
# Assay in all cases: NCI-60 cell line screen, 48 h
# [1] = tested on: ACHN renal
# [2] = tested on: DU-145 prostate
# [3] = tested on: EKVX NSCLC
# [4] = tested on: HOP-92 NSCLC
# [5] = tested on: HT29 colon
# [6] = tested on: K-562 leukemia
# [7] = tested on: M14 melanoma
# [8] = tested on: MALME-3M melanoma
# [9] = tested on: MOLT-4 leukemia
# [10] = tested on: NCI-H460 lung
# [11] = tested on: OVCAR-8 ovarian
# [12] = tested on: SF-295 CNS
# [13] = tested on: SNB-19 CNS
# [14] = tested on: T-47D breast
# [15] = tested on: U251 CNS
# [16] = tested on: HL-60(TB) leukemia
# [17] = tested on: RPMI-8226 leukemia
# [18] = tested on: SW-620 colon
Compound,TGI [1],TGI [2],TGI [3],TGI [4],TGI [5],TGI [6],TGI [7],TGI [8],TGI [9],TGI [10],TGI [11],TGI [12],TGI [13],TGI [14],TGI [15],TGI [16],TGI [17],TGI [18]
CCOC(=O)c1cc(-c2ccc([N+](=O)[O-])cc2)c([N+](=O)[O-])[nH]1,> 10 µM,> 10 µM,> 10 µM,5.49 µM,> 10 µM,> 10 µM,> 10 µM,> 10 µM,> 10 µM,> 10 µM,> 10 µM,7.47 µM,> 10 µM,9.95 µM,> 10 µM,–,–,–
COC(=O)C1CC(c2ccc(Cl)cc2)=NO1 (stereo not given),> 100 µM,–,> 100 µM,> 100 µM,> 100 µM,> 100 µM,> 100 µM,> 100 µM,> 100 µM,> 100 µM,> 100 µM,> 100 µM,–,–,> 100 µM,> 100 µM,> 100 µM,> 100 µM
C/C(=N\Nc1nc2ccccc2o1)c1ncccn1,11.3 µM,> 50.8 µM,14.1 µM,16.6 µM,45.4 µM,–,0.295 µM,–,0.0282 µM,14 µM,0.404 µM,6.06 µM,> 100 µM,28.5 µM,14.8 µM,–,0.0363 µM,28.3 µM
CC(NC(=O)C(N)CC(=O)O)C(=O)OC12CC3CC(CC(C3)C1)C2 (stereo not given),> 100 µM,> 100 µM,> 100 µM,> 100 µM,> 100 µM,> 100 µM,> 100 µM,–,> 100 µM,> 100 µM,> 100 µM,–,> 100 µM,–,> 100 µM,–,> 100 µM,> 100 µM
CN1C(=S)CSc2ccccc21,> 100 µM,–,> 100 µM,> 100 µM,> 100 µM,> 100 µM,> 100 µM,> 100 µM,> 100 µM,> 100 µM,> 100 µM,–,> 100 µM,–,> 100 µM,> 100 µM,> 100 µM,> 100 µM
Cc1ccc(N=NN(C)C(C)C(O)Cc2ccccc2)cc1 (stereo not given),> 100 µM,> 100 µM,> 100 µM,–,> 100 µM,> 100 µM,> 100 µM,> 100 µM,> 100 µM,> 100 µM,> 100 µM,> 100 µM,> 100 µM,88.5 µM,> 100 µM,> 100 µM,> 100 µM,> 100 µM
O=c1oc2ccc3ccccc3c2cc1-c1nc(-c2ccc([N+](=O)[O-])cc2)n[nH]1,> 100 µM,> 100 µM,> 100 µM,–,> 100 µM,> 100 µM,> 100 µM,> 100 µM,> 100 µM,> 100 µM,94.6 µM,> 100 µM,> 100 µM,–,> 100 µM,> 100 µM,> 100 µM,> 100 µM
C=C1C2C[C@@H]3O[C@H]4C[C@H]5O[C@@]6(C[C@@H]7O[C@]8(C[C@H](C)[C@@H]9O[C@@H]%10CC(C=O)O[C@@H]%10C[C@@H]9O8)C[C@H](C)[C@@H]7O6)C[C@H]5O[C@H]4[C@H](C)[C@H]3OC(=O)C[C@H]3CC[C@@H]4OC5[C@H]6O[C@]7(CC[C@H]8CC(=C)[C@H](CC[C@@H](C[C@H]1C)O2)O8)CC6O[C@@H]5[C@@H](O7)[C@H]4O3 (stereo not given in full),> 1 µM,> 1 µM,> 1 µM,> 0.42 µM,–,> 1 µM,> 1 µM,–,> 1 µM,> 1 µM,–,> 1 µM,> 1 µM,> 1 µM,> 1 µM,–,0.000326 µM,> 1 µM
C=C[C@]1(C)CC(=O)C(C(C)C=O)[C@]12C(=O)Oc1cccc(C)c1C2=O (stereo not given in full),29 µM,30.6 µM,40.2 µM,–,27.6 µM,53.2 µM,29.8 µM,34.5 µM,> 100 µM,30.5 µM,31.5 µM,28.9 µM,24.6 µM,34.1 µM,28.3 µM,32.3 µM,> 100 µM,25.2 µM
O=C1NC(=S)N/C1=C\c1ccc(Cl)cc1,–,> 100 µM,> 100 µM,–,> 100 µM,–,> 100 µM,> 100 µM,> 100 µM,–,> 100 µM,> 100 µM,> 100 µM,> 100 µM,> 100 µM,–,> 100 µM,> 100 µM
CSCCC(NC(=O)Cc1ccc(C(=O)c2ccccc2)cc1)C(=O)N1CCN(CCCCN2c3ccccc3Sc3cc(N=[N+]=[N-])ccc32)CC1 (stereo not given),> 100 µM,> 100 µM,> 100 µM,> 100 µM,> 100 µM,> 100 µM,–,> 100 µM,> 100 µM,> 100 µM,–,> 100 µM,–,–,> 100 µM,> 100 µM,> 100 µM,–
O=C1C[C@@H]2[C@@H](CCC23CCCC3)N1,> 100 µM,–,> 100 µM,–,> 100 µM,> 100 µM,> 100 µM,> 100 µM,> 100 µM,> 100 µM,> 100 µM,> 100 µM,> 100 µM,–,> 100 µM,> 100 µM,> 100 µM,> 100 µM
COc1ccc(C(OC(=O)[C@H](O[Si](C)(C)C(C)(C)C)[C@@H](NC(=O)c2ccccc2)c2ccccc2)c2ccc(OC)cc2)cc1,> 100 µM,> 100 µM,> 100 µM,> 100 µM,> 100 µM,> 100 µM,–,> 100 µM,> 100 µM,> 100 µM,> 100 µM,> 100 µM,> 100 µM,> 100 µM,> 100 µM,–,25.1 µM,> 100 µM
Fc1ccc(Oc2nc3ccccc3nc2-c2ccccc2)cc1,> 100 µM,> 100 µM,> 100 µM,> 100 µM,> 100 µM,> 100 µM,–,> 100 µM,> 100 µM,> 100 µM,–,> 100 µM,> 100 µM,–,> 100 µM,> 100 µM,> 100 µM,> 100 µM
C=CCOC1CC(n2cnc3c(N)ncnc32)OC1CO (stereo not given),> 100 µM,–,–,> 100 µM,> 100 µM,> 100 µM,> 100 µM,> 100 µM,> 100 µM,> 100 µM,> 100 µM,> 100 µM,> 100 µM,–,> 100 µM,> 100 µM,> 100 µM,> 100 µM
